Source: ChEMBL document CHEMBL1128516, “A check on rational drug design: crystal structure of a complex of human immunodeficiency virus type 1 protease with a novel gamma-turn mimetic inhibitor” (J Med Chem, 1995)
pKi: −log10 of the molar value.

Target: Human immunodeficiency virus type 1 protease (Human immunodeficiency virus 1, UniProt Q72874)
Assay: Competitive inhibitory activity against HIV-1 protease

COC(=O)C(NC(=O)C(NC(=O)[C@H](C)N1CCC(C(C)N(C)C(C)C(=O)O)=CC(Cc2ccccc2)C1=O)C(C)C)C(C)C (stereo partly specified)
pKi: 3.83
